Assay results reported in ChEMBL document CHEMBL3046517, “Synthesis and antimicrobial study of fluoroquinolone-based 4-thiazolidinones” (2010).
In brackets after ≈: the same amount, converted by molar mass. Activity calls are given as the source filed them. No cut-off for these calls is given here.

What was measured:
Assay type in all cases: functional
Streptococcus pyogenes = assay: Antibacterial activity against Streptococcus pyogenes by broth dilution method
Staphylococcus aureus = assay: Antibacterial activity against Staphylococcus aureus by broth dilution method
Aspergillus clavatus = assay: Antifungal activity against Aspergillus clavatus by broth dilution method
Aspergillus niger = assay: Antifungal activity against Aspergillus niger by broth dilution method
Pseudomonas aeruginosa = assay: Antibacterial activity against Pseudomonas aeruginosa by broth dilution method
Escherichia coli = assay: Antibacterial activity against Escherichia coli by broth dilution method
Candida albicans = assay: Antifungal activity against Candida albicans by broth dilution method

Structure (SMILES)	MIC (Streptococcus pyogenes) [µg/mL]	MIC (Staphylococcus aureus) [µg/mL]	MIC (Aspergillus clavatus) [µg/mL]	MIC (Aspergillus niger) [µg/mL]	MIC (Pseudomonas aeruginosa) [µg/mL]	MIC (Escherichia coli) [µg/mL]	MIC (Candida albicans) [µg/mL]	Activity (Streptococcus pyogenes)	Activity (Staphylococcus aureus)	Activity (Pseudomonas aeruginosa)	Activity (Escherichia coli)	Activity (Candida albicans)
COc1ccc(N2CCN(c3cc4c(cc3F)c(=O)c(C(=O)N/N=C\c3ccccc3Cl)cn4C3CC3)CC2)cc1	100 (≈ 174 µM)	500 (≈ 871 µM)	> 1000	> 1000	100 (≈ 174 µM)	100 (≈ 174 µM)	500 (≈ 871 µM)	–	–	–	–	–
CC1(C)S[C@@H]2[C@H](NC(=O)[C@H](N)c3ccccc3)C(=O)N2[C@H]1C(=O)O [AMPICILLIN]	100 (≈ 286 µM)	250 (≈ 715 µM)	–	–	100 (≈ 286 µM)	100 (≈ 286 µM)	–	–	–	–	–	–
CCn1cc(C(=O)O)c(=O)c2cc(F)c(N3CCNCC3)cc21 [NORFLOXACIN]	10 (≈ 31.3 µM)	10 (≈ 31.3 µM)	–	–	10 (≈ 31.3 µM)	10 (≈ 31.3 µM)	–	–	–	–	–	–
O=C(Cl)c1cn(C2CC2)c2cc(Cl)c(F)cc2c1=O	–	–	–	–	–	–	–	Active	Active	Active	Active	Active
O=C(O)c1cn(C2CC2)c2cc(Cl)c(F)cc2c1=O	100 (≈ 355 µM)	100 (≈ 355 µM)	1000 (≈ 3550 µM)	1000 (≈ 3550 µM)	100 (≈ 355 µM)	100 (≈ 355 µM)	500 (≈ 1780 µM)	–	–	–	–	–
O=C(N/N=C\c1cccc([N+](=O)[O-])c1)c1cn(C2CC2)c2cc(Cl)c(F)cc2c1=O	1000 (≈ 2330 µM)	1000 (≈ 2330 µM)	> 1000	1000 (≈ 2330 µM)	200 (≈ 466 µM)	200 (≈ 466 µM)	1000 (≈ 2330 µM)	–	–	–	–	–
COc1ccc(N2CCN(c3cc4c(cc3F)c(=O)c(C(=O)NN3C(=O)CSC3c3ccc(F)cc3)cn4C3CC3)CC2)cc1 (stereo not given)	1000 (≈ 1580 µM)	1000 (≈ 1580 µM)	1000 (≈ 1580 µM)	1000 (≈ 1580 µM)	500 (≈ 792 µM)	1000 (≈ 1580 µM)	1000 (≈ 1580 µM)	–	–	–	–	–
O=C(N[C@H](CO)[C@H](O)c1ccc([N+](=O)[O-])cc1)C(Cl)Cl [CHLORAMPHENICOL]	50 (≈ 155 µM)	50 (≈ 155 µM)	–	–	50 (≈ 155 µM)	50 (≈ 155 µM)	–	–	–	–	–	–
COc1ccc(N2CCN(c3cc4c(cc3F)c(=O)c(C(=O)NN3C(=O)CSC3c3ccc(O)c(OC)c3)cn4C3CC3)CC2)cc1 (stereo not given)	1000 (≈ 1520 µM)	1000 (≈ 1520 µM)	1000 (≈ 1520 µM)	> 1000	1000 (≈ 1520 µM)	1000 (≈ 1520 µM)	500 (≈ 758 µM)	–	–	–	–	–
COc1ccc(N2CCN(c3cc4c(cc3F)c(=O)c(C(=O)N/N=C\c3ccccc3[N+](=O)[O-])cn4C3CC3)CC2)cc1	150 (≈ 257 µM)	150 (≈ 257 µM)	1000 (≈ 1710 µM)	1000 (≈ 1710 µM)	100 (≈ 171 µM)	50 (≈ 85.5 µM)	1000 (≈ 1710 µM)	–	–	–	–	–
COc1cc(/C=N\NC(=O)c2cn(C3CC3)c3cc(Cl)c(F)cc3c2=O)ccc1O	500 (≈ 1160 µM)	200 (≈ 465 µM)	1000 (≈ 2330 µM)	500 (≈ 1160 µM)	200 (≈ 465 µM)	100 (≈ 233 µM)	100 (≈ 233 µM)	–	–	–	–	–
COc1ccc(/C=N\NC(=O)c2cn(C3CC3)c3cc(Cl)c(F)cc3c2=O)cc1	1000 (≈ 2420 µM)	500 (≈ 1210 µM)	> 1000	> 1000	500 (≈ 1210 µM)	200 (≈ 483 µM)	500 (≈ 1210 µM)	–	–	–	–	–

More lines, in order of falling MIC (Aspergillus clavatus), values ahead:

MIC (Streptococcus pyogenes) [µg/mL]	MIC (Staphylococcus aureus) [µg/mL]	MIC (Aspergillus clavatus) [µg/mL]	MIC (Aspergillus niger) [µg/mL]	MIC (Pseudomonas aeruginosa) [µg/mL]	MIC (Escherichia coli) [µg/mL]	MIC (Candida albicans) [µg/mL]	Structure (SMILES)	Activity (Streptococcus pyogenes)	Activity (Staphylococcus aureus)	Activity (Pseudomonas aeruginosa)	Activity (Escherichia coli)	Activity (Candida albicans)
500 (≈ 855 µM)	1000 (≈ 1710 µM)	1000 (≈ 1710 µM)	1000 (≈ 1710 µM)	500 (≈ 855 µM)	1000 (≈ 1710 µM)	1000 (≈ 1710 µM)	COc1ccc(N2CCN(c3cc4c(cc3F)c(=O)c(C(=O)N/N=C\c3cccc([N+](=O)[O-])c3)cn4C3CC3)CC2)cc1	–	–	–	–	–
500 (≈ 759 µM)	200 (≈ 304 µM)	1000 (≈ 1520 µM)	1000 (≈ 1520 µM)	100 (≈ 152 µM)	500 (≈ 759 µM)	1000 (≈ 1520 µM)	COc1ccc(N2CCN(c3cc4c(cc3F)c(=O)c(C(=O)NN3C(=O)CSC3c3ccccc3[N+](=O)[O-])cn4C3CC3)CC2)cc1 (stereo not given)	–	–	–	–	–
500 (≈ 794 µM)	500 (≈ 794 µM)	1000 (≈ 1590 µM)	1000 (≈ 1590 µM)	1000 (≈ 1590 µM)	500 (≈ 794 µM)	500 (≈ 794 µM)	COc1ccc(N2CCN(c3cc4c(cc3F)c(=O)c(C(=O)NN3C(=O)CSC3c3ccccc3O)cn4C3CC3)CC2)cc1 (stereo not given)	–	–	–	–	–
1000 (≈ 2500 µM)	500 (≈ 1250 µM)	500 (≈ 1250 µM)	500 (≈ 1250 µM)	500 (≈ 1250 µM)	500 (≈ 1250 µM)	500 (≈ 1250 µM)	O=C(N/N=C\c1ccccc1O)c1cn(C2CC2)c2cc(Cl)c(F)cc2c1=O	–	–	–	–	–
1000 (≈ 1630 µM)	500 (≈ 815 µM)	500 (≈ 815 µM)	500 (≈ 815 µM)	200 (≈ 326 µM)	1000 (≈ 1630 µM)	1000 (≈ 1630 µM)	COc1ccc(N2CCN(c3cc4c(cc3F)c(=O)c(C(=O)NN3C(=O)CSC3c3ccccc3)cn4C3CC3)CC2)cc1 (stereo not given)	–	–	–	–	–
100 (≈ 239 µM)	200 (≈ 478 µM)	500 (≈ 1200 µM)	500 (≈ 1200 µM)	100 (≈ 239 µM)	50 (≈ 120 µM)	1000 (≈ 2390 µM)	O=C(N/N=C\c1ccccc1Cl)c1cn(C2CC2)c2cc(Cl)c(F)cc2c1=O	–	–	–	–	–
500 (≈ 1690 µM)	500 (≈ 1690 µM)	500 (≈ 1690 µM)	500 (≈ 1690 µM)	500 (≈ 1690 µM)	500 (≈ 1690 µM)	200 (≈ 676 µM)	NNC(=O)c1cn(C2CC2)c2cc(Cl)c(F)cc2c1=O	–	–	–	–	–
–	–	100 (≈ 283 µM)	100 (≈ 283 µM)	–	–	500 (≈ 1420 µM)	COC1=CC(=O)C[C@@H](C)[C@]12Oc1c(Cl)c(OC)cc(OC)c1C2=O [GRISEOFULVIN]	–	–	–	–	–
